The source made the active and inactive calls. How the calls were made is not given here.
Target: Influenza A virus M2 proton channel (A/TW/4845/1999 H1N1)
Experiment: M2 proton channel binding, NMR based, influenza A virus H1N1 strain (AID 1549)
Details: NMR binding screen, M2 protein

SMILES	Kd
CC(=O)c1c(O)cc(O)cc1O	> 4 mM (inactive)
COc1ccc2nc(SCC(N)=O)[nH]c2c1	> 4 mM (inactive)
CSc1ccccc1NC(=O)c1cnccn1	> 4 mM (inactive)
CNc1nc(N)c(C(=O)C(C)(C)C)s1	> 4 mM (inactive)
Nc1c2c3c(sc2nc(=O)n1N)CCCC3	> 4 mM (inactive)
c1ccc(-n2nnnc2Oc2cccc3cccnc23)cc1	> 4 mM (inactive)
Cc1ccc2nc(SCCC#N)nc(C)c2c1	> 4 mM (inactive)
O=C(O)CCN1CCc2ccccc2C1c1ccncc1 (stereo unspecified)	> 4 mM (inactive)
O=C(O)c1ncoc1-c1ccccc1	> 4 mM (inactive)
CC(=O)NC(=S)Nc1nc2ccccc2n1C(C)=O	> 4 mM (inactive)
Cc1ccc(/C=C/C(=O)O)cc1S(=O)(=O)NCCO	> 4 mM (inactive)
Nc1cc2ccccc2cn1	> 4 mM (inactive)
CN(C)c1oc(-c2ccccc2Cl)nc1C#N	> 4 mM (inactive)
O=C(Nc1ccccc1)Nc1ccccc1	> 4 mM (inactive)
O=C(COc1ccccc1)N1CCc2ccccc2C1	> 4 mM (inactive)
CC(=O)C1CCC2C3CCC4C[C@H](O)CCC4(C)C3C[C@H](O)C12C (stereo partly specified)	> 4 mM (inactive)
Cc1ccc(-n2ncc(C#N)c2/N=C/N(C)C)cc1	> 4 mM (inactive)
Cc1ccc(-n2cnnn2)c2cccnc12	> 4 mM (inactive)
Cn1cnnc1Sc1ncnc(N)c1[N+](=O)[O-]	> 4 mM (inactive)

SMILES	Kd
O=C(O)C(O)C(O)C(O)C(O)C(=O)O (stereo unspecified)	> 4 mM (inactive)
Fc1ccc(Br)cc1/C=N/n1cnnc1	> 4 mM (inactive)
CCOC(=O)c1cnc2cc(C)nn2c1C	> 4 mM (inactive)
CC1(C)NCCN2C(=O)CSC21 (stereo unspecified)	> 4 mM (inactive)
O=C(O[C@@H]1Cc2c(O)cc(O)cc2O[C@@H]1c1cc(=O)c(O)c2c(O)c(O)cc([C@H]3Oc4cc(O)cc(O)c4C[C@H]3O)c2c1)c1cc(O)c(O)c(O)c1	> 4 mM (inactive)
O=C(Nn1c(=S)[nH]c2ccccc2c1=O)c1ccncc1	> 4 mM (inactive)
Cn1c(NCC(=O)O)nc2c1c(=O)[nH]c(=O)n2C	> 4 mM (inactive)
CC(C)CCCC(C)C1CCC2C3C[C@@H](O)[C@@]4(O)C[C@@H](O)CC[C@]4(C)C3CC[C@]12C (stereo partly specified)	> 4 mM (inactive)
CN1CCN(CC(O)c2ccccc2)CC1 (stereo unspecified)	> 4 mM (inactive)
CC(=O)NC(=S)Nc1ccccc1N1CCOCC1	> 4 mM (inactive)
O=C(Nc1ccccc1)Nc1ccccn1	> 4 mM (inactive)
CN1CCN(C(=O)C2CCCNC2)CC1 (stereo unspecified)	> 4 mM (inactive)
O=C1CCCC(=O)N1Cc1ccco1	> 4 mM (inactive)
COc1ccc2c(c1)c1n[nH]c(=S)nc1n2C	> 4 mM (inactive)
NC(=O)c1ccc(N2C(=O)CCC2=O)cc1Cl	> 4 mM (inactive)
CSc1ccc(C2NC(=O)CCC2[N+](=O)[O-])cc1 (stereo unspecified)	> 4 mM (inactive)
O=C(c1ccc(F)cc1)C1CCNCC1	> 4 mM (inactive)
COc1cc2c(cc1OC)C1=C(C#N)CCC(=O)N1CC2	> 4 mM (inactive)
CCOC(=O)c1csc(C)n1	> 4 mM (inactive)

SMILES	Kd
CSc1ccccc1NC(=O)c1ccc(C)o1	> 4 mM (inactive)
O=C(Nc1nncs1)c1c(F)c(F)c(F)c(F)c1F	> 4 mM (inactive)
CC(Sc1ncn[nH]1)C(=O)O (stereo unspecified)	> 4 mM (inactive)
COc1ccc(S(=O)(=O)N2CCOCC2)cc1C(C)C	> 4 mM (inactive)
Cc1ccc(CN2C3=NC(=O)CN3c3ccccc32)cc1	> 4 mM (inactive)
Nc1nnc(SCc2ccc3c(c2)OCO3)s1	> 4 mM (inactive)
O=C1CSC(=NC(=O)c2ccccc2)N1	> 4 mM (inactive)
Cc1cc(NC(=O)NCCCSc2nncn2C)no1	> 4 mM (inactive)
CC(=O)Nc1nc2c(s1)C(=O)NCCC2	> 4 mM (inactive)
CC(=O)Nc1cccc(NC(=O)c2cccnc2)c1	> 4 mM (inactive)
CC(=O)O[C@@H]1C=C[C@@]2(C)C(C[C@@H](OC(C)=O)[C@@]3(C)C4=CC(=O)O[C@@H](c5ccoc5)[C@]4(C)CCC23)C1(C)C (stereo partly specified)	> 4 mM (inactive)
CC(=O)c1c(O)c(C)c(O)c2c1OC1=CC(=O)C(C(C)=O)C(=O)C12C (stereo unspecified)	> 4 mM (inactive)
O=C1NC(=O)C(C(C[N+](=O)[O-])c2ccc(O)cc2)C(=O)N1 (stereo unspecified)	> 4 mM (inactive)
NC(=O)Cn1nc2c3c(cccc3c1=O)-c1ccccc1-2	> 4 mM (inactive)
CC(=O)Oc1c(C)cc(O)c2ccccc12	> 4 mM (inactive)
COn1c(=O)c(C)[n+]([O-])c2ccccc21	> 4 mM (inactive)
CCOC(=O)CC1NCCNC1=O (stereo unspecified)	> 4 mM (inactive)
NC(=O)CNC(=O)c1ccccc1	> 4 mM (inactive)

From PubChem BioAssay AID1549 (Sanford-Burnham Center for Chemical Genomics, 2009)
